Eleven molecules from patent US20180177792A1, “COMPOSITIONS AND METHODS FOR TREATING PATIENTS WITH RTK MUTANT CELLS” (IGNYTA, INC., priority 2015, published 2018) can be followed below.

Read-outs that look alike come from different tables or passages of the source.

A word on the IC50: it is the concentration that inhibits the measured activity by half.

One test addresses T1, BaF3-tel/trkB cells (Homo sapiens, UniProt Q16620).
T1 construct: fused on or other part: P41212 (Transcription factor ETV6)
The test is described as follows: growth inhibition, Ba/F3-tel/trkB cells. The class given is cell-based, murine. The settings on record: read-out: IC50, Table 9.

A further test addresses T2, BaF3-tel/trkC cells (Homo sapiens, UniProt Q16288).
T2 construct: fused on or other part: P41212 (Transcription factor ETV6)
The test is described as follows: growth inhibition, Ba/F3-tel/trkC cells. The class given is cell-based, murine.

Another test deals with T3, BaF3-tel/trkA_WT cells (Homo sapiens, UniProt P04629).
T3 construct: Input Ba/F3-Tel/TrkA cell line was an engineered cell line harboring a recombinant TrkA fusion gene ETV6-TrkA; fused on or other part: P41212 (Transcription factor ETV6)
T3 sequence (P04629 whole entry, change not shown, the tested form may be a part): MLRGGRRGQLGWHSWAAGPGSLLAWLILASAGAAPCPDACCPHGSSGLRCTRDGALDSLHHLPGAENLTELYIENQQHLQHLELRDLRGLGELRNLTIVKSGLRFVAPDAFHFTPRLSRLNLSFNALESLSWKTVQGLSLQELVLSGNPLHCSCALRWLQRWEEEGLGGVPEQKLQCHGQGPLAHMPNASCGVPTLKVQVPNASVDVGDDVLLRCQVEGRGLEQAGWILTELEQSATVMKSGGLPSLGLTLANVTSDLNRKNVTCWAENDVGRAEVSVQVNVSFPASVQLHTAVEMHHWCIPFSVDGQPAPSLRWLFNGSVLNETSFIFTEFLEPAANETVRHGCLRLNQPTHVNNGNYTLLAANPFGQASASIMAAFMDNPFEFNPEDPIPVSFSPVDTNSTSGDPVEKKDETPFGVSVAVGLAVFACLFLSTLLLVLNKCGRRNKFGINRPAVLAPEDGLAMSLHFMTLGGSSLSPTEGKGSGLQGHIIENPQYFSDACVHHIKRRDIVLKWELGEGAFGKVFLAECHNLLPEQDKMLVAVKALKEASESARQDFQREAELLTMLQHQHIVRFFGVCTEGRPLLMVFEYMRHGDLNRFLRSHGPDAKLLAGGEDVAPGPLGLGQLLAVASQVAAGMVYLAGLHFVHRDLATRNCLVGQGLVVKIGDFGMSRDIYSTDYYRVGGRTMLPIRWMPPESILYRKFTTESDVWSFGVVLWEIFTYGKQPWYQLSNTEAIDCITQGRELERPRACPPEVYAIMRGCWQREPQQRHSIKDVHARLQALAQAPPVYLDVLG
The test is described as follows: growth inhibition, parental Ba/F3-tel/trkA cells. The class given is cell-based, murine. The procedure:
(§1) Input Ba/F3-Tel/TrkA cell line was an engineered cell line harboring a recombinant TrkA fusion gene ETV6-TrkA. […] Cell viability was evaluated by trypan blue and counted every two days (FIG. 9).
(§2) Each treatment condition was performed in duplicate.
(§3) In this experiment, each of the following cell lines: Ba/F3-tel/trkA, Ba/F3-tel/trkA-10nMA (G595R), KM12-DMSO, KM12-30nM101-B (G667C), KM12-100nM101-B (G667C), KM12-300nM101-B (G595R) was screened against a number of chemical compounds.

The target of test [1] is T4, BaF3-tel/trkA-10 nMA(G595R) cells (Homo sapiens, UniProt P04629, G595R, cells depend on it).
T4 construct: IC50; other: BaF3-tel/trkA-10 nMA(G595R); fused on or other part: P41212 (Transcription factor ETV6)
T4 sequence (P04629 whole entry G595R, the tested form may be a part): as the sequence (P04629 whole entry, change not shown, the tested form may be a part) above, with G595R counted along it
The test is classed as cell-based, murine. The settings on record: BaF3-tel/trkA_G595R. The procedure:
as §1, §2, §3

Test [2] has as its system KM12-TPM3/trkA_G595R cells. The test is described as follows: growth inhibition screen, KM12 mutant cells with G595R. The test is classed as cell-based, human. The procedure:
as §2, §3

Test [3] deals with KM12-TPM3/trkA_G667C cells. Briefly: growth inhibition screen, KM12 mutant cells with G667C. The class given is cell-based, human. The procedure:
as §2, §3

Test [4] concerns mutant cells harboring the TrkA-G595C mutation or the TrkA-G667C mutation. Briefly: screen for inhibition of proliferation of mutant KM12 and Ba/F3-tel/trkA cells. The class given is cell-based. The procedure: as §2, §3
Test [5] concerns parental KM12 cells (KM12-DMSO; KM12-TPM3/trkA_WT). The test is described as follows: growth inhibition (CellTiter-Glo, 3 days), parental KM12 cells cultured in DMSO. (Cellular ATP, detected with luciferase, serves as a proxy for viable cell number.)
In another test the test system is KM12-100 nM-B cells. Briefly: cells. The settings on record: Homo sapiens. The procedure:
as §2

The subject of the next test is KM12-100 nM A cells. The test is described as follows: cells. Particulars: Homo sapiens. The procedure: as §2
The test system of another test is KM12-300 nM-B cells. The test is described as follows: cells. Particulars: Homo sapiens. The procedure:
as §2

In the next test the test system is KM12-30 nM-B cells. Briefly: cells. Particulars: Homo sapiens. The procedure: as §2
Another test relates to KM12-3 nM A cells. The test is described as follows: cells. The settings on record: Homo sapiens. The procedure: as §2
The subject of the next test is KM12-30 nM A cells. Briefly: cells. The settings on record: for IC50: Homo sapiens. The procedure: as §2
Another test deals with KM12-1 nM A cells. Briefly: cells. The settings on record: Homo sapiens. The procedure:
as §2

The test system of test [6] is KM12-100 nM-B (no drug) cells. Briefly: cells. The settings on record: Homo sapiens. The procedure: as §2
The test system of another test is KM12-10 nM A cells. Briefly: cells. The settings on record: Homo sapiens. The procedure:
as §2

Test [7] relates to BaF3-tel/trkA-10 nMA(G595R) cells. The test is classed as cell-based, murine. The procedure: as §1, §2, §3
The mark [8] stands for this setting: Table 8, cells without unit, read-out: IC50 (the source's name).
Where [9] appears, read: Table 9, read-out: IC50 (the source's name).
[10] abbreviates: Homo sapiens, KM12-TPM3/trkA_G595R, Table 8, in μM, read-out: IC50.
[11] abbreviates: Homo sapiens, KM12-TPM3/trkA_G667C, Table 8, in μM, read-out: IC50.
The mark [12] stands for this setting: Table 8, in μM, read-out: IC50 (the source's name).

T2 sequence (Q16288 whole entry, change not shown, the tested form may be a part): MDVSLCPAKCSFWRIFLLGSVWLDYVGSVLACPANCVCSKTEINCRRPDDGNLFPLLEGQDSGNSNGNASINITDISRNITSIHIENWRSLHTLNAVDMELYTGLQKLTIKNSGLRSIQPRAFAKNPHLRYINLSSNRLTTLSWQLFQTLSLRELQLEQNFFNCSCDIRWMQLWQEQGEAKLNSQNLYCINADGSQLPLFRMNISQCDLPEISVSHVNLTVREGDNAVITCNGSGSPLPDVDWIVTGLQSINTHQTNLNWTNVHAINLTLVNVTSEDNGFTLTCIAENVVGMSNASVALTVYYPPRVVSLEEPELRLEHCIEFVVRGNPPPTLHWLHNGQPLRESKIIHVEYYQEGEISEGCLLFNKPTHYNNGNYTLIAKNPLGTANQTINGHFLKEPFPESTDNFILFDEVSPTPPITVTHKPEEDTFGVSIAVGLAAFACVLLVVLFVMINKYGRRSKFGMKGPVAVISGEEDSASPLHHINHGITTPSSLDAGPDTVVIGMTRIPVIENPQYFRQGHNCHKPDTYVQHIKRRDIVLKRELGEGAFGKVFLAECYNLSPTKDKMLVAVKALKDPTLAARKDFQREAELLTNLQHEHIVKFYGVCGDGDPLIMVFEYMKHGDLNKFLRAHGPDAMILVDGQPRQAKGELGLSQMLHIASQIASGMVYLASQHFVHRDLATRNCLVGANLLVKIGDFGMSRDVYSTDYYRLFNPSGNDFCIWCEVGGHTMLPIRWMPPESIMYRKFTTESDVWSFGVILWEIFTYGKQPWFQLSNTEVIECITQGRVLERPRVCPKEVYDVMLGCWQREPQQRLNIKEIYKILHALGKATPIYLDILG
T1 sequence (Q16620 whole entry, change not shown, the tested form may be a part): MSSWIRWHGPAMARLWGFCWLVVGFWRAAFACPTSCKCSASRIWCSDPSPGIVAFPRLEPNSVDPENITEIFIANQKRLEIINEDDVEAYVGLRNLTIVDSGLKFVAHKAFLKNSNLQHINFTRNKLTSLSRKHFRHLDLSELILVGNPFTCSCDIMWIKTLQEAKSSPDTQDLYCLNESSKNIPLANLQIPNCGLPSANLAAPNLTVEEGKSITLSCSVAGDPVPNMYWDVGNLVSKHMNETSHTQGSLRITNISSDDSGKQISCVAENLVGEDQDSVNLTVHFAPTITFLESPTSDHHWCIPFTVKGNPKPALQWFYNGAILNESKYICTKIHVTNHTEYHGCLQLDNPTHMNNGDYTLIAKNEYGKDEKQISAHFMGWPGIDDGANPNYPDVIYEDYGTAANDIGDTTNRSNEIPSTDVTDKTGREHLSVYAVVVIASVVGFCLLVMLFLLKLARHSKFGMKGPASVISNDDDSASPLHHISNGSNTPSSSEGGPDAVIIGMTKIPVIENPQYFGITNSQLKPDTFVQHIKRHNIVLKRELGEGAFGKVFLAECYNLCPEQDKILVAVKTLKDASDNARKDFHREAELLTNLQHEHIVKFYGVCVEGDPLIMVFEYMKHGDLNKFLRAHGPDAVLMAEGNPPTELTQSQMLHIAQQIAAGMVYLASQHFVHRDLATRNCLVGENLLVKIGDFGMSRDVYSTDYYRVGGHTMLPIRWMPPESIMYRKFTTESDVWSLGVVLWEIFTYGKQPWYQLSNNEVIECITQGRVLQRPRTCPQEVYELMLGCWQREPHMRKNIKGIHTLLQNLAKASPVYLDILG

For `CC(C)Oc1cc(Nc2nc(N[C@@H](C)c3ccc(F)cn3)ncc2Cl)n[nH]1` [AZ-23, 5-chloro-2-N-[(1S)-1-(5-fluoropyridin-2-yl)ethyl]-4-N-(3-propan-2-yloxy-1H-pyrazol-5-yl)pyrimidine-2,4-diamine], the GI50 at BaF3-tel/trkB cells was determined as 0.0033 µM; on BaF3-tel/trkC cells (read-out: IC50, Table 9), 0.0022 µM.

With `COC[C@@H](C)Nc1cc(N2CCN(C)CC2)ccc1C(=O)Nc1n[nH]c2ccc(S(=O)(=O)c3cc(F)cc(F)c3)cc12` [Compound 2, N-[5-(3,5-difluoro-benzenesulfonyl)-1H-indazol-3-yl]-2-((R)-2-methoxy-1-methyl-ethylamino)-4-(4-methyl-piperazin-1-yl) benzamide], the values for the GI50 (on BaF3-tel/trkA_WT cells (setting [8]); in test [1] (setting [8])) were 0.0023 µM and 0.846 µM, respectively. The IC50 in test [2] (KM12-TPM3/trkA_G595R, Table 8, cells without unit, read-out: IC50) turned out to be 0.424 µM; in [3] (KM12-TPM3/trkA_G667C, Table 8, cells without unit, read-out: IC50), 0.466 µM; in test [5] (KM12-TPM3/trkA_WT, Table 8, cells without unit), 0.0061 µM. Besides, in [4], the “inhibitory activity against mutant cells” value is “significant inhibitory activity”.

On to `COC(=O)[C@@]1(O)C[C@H]2O[C@]1(C)n1c3ccccc3c3c4c(c5c6ccccc6n2c5c31)C(=O)NC4` [Compound K252a, 9,12-Epoxy-1H-diindolo[1,2,3-fg:3′,2′,1′-kl]pyrrolo[3,4-i][1,6]benzodiazocine-10-carboxylic acid, 2,3,9,10,11,12-hexahydro-10-hydroxy-9-methyl-1-oxo-, methyl ester, (9S,10R,12R)-], for which the GI50 on BaF3-tel/trkB cells was 0.0453 µM; on BaF3-tel/trkC cells (setting [9]), 0.0143 µM.

For `O=C(Nc1cnn2ccc(N3CCC[C@@H]3c3cc(F)ccc3F)nc12)N1CC[C@H](O)C1` [LOXO-101, (3S)-N-[5-[(2R)-2-(2,5-difluorophenyl)-1-pyrrolidinyl]pyrazolo[1,5-a]pyrimidin-3-yl]-3-hydroxy-1-pyrrolidinecarboxamide], the half-inhibitory concentration (IC50) in test [2] (setting [10]) was more than 1 µM; in test [3] (setting [11]), more than 1 µM; in test [5] (Homo sapiens, KM12) it was 0.027 µM.

As for `COc1cc(N2CCC(N3CCN(C)CC3)CC2)ccc1Nc1ncc(Cl)c(Nc2ccccc2S(=O)(=O)C(C)C)n1` [NVP-TAE684, 5-chloro-N2-[2-methoxy-4-[4-(4-methyl-1-piperazinyl)-1-piperidinyl]phenyl]-N4-[2-[(1-methylethyl)sulfonyl]phenyl]-2,4-Pyrimidinediamine], the “inhibitory activity against mutant cells” value in test [4] was “significant inhibitory activity”.

With `C[C@H]1Oc2cc(cnc2N)-c2c(nn(C)c2C#N)CN(C)C(=O)c2ccc(F)cc21` [PF06463922, (10R)-7-amino-12-fluoro-10,15,16,17-tetrahydro-2,10,16-trimethyl-15-oxo-2H-4,8-Methenopyrazolo[4,3-h][2,5,11]benzoxadiazacyclotetradecine-3-carbonitrile], the GI50 is 0.386 µM on BaF3-tel/trkA_WT cells (read-out: IC50, Table 8, cells without unit) and more than 1 µM in [1] (read-out: IC50, Table 8, in μM). In addition, the IC50 is more than 1 µM in test [2] (Homo sapiens, KM12); more than 1 µM in test [3] (Homo sapiens, KM12); 0.206 µM in [5] (Homo sapiens, KM12).

In the case of `CN[C@@H]1C[C@H]2O[C@@](C)([C@@H]1OC)n1c3ccccc3c3c4c(c5c6ccccc6n2c5c31)C(=O)NC4` [Staurosporine, 9,13-Epoxy-1H,9H-diindolo[1,2,3-gh:3′,2′,1′-lm]pyrrolo[3,4-j][1,7]benzodiazonin-1-one, 2,3,10,11,12,13-hexahydro-10-methoxy-9-methyl-11-(methylamino)-, (9S,10R,11R,13R)-], at BaF3-tel/trkB cells, the GI50 came out at 0.0042 µM.

Take `Cc1cc(Nc2ncc(Cl)c(Nc3ccccc3S(=O)(=O)C(C)C)n2)c(OC(C)C)cc1C1CCNCC1` [ceritinib, 5-chloro-2-N-(5-methyl-4-piperidin-4-yl-2-propan-2-yloxyphenyl)-4-N-(2-propan-2-ylsulfonylphenyl)pyrimidine-2,4-diamine]: the GI50 (on BaF3-tel/trkA_WT cells (setting [12]); in test [1] (setting [12])) was more than 1 µM each time. Also, the IC50 in test [2] (setting [10]) is more than 1 µM; in [3] (setting [11]), more than 1 µM; in [5] (Homo sapiens, KM12), 0.269 µM.

On to `C[C@@H](Oc1cc(-c2cnn(C3CCNCC3)c2)cnc1N)c1c(Cl)ccc(F)c1Cl` [crizotinib, (R)-3-[1-(2,6-Dichloro-3-fluorophenyl)ethoxy]-5-[1-(piperidin-4-yl)-1H-pyrazol-4-yl]pyridin-2-amine], for which the GI50 on BaF3-tel/trkA_WT cells (setting [8]) was found to be 0.179 µM; in test [1] (setting [8]), 0.433 µM. Moreover, the IC50 in test [2] (setting [10]) is more than 1 µM; in test [3] (setting [11]), more than 1 µM; in test [5] (Homo sapiens, KM12), 0.0766 µM.

Take `CN1CCN(c2ccc(C(=O)Nc3n[nH]c4ccc(Cc5cc(F)cc(F)c5)cc34)c(NC3CCOCC3)c2)CC1` [entrectinib, N-[5-(3,5-difluorobenzyl)-1H-indazol-3-yl]-4-(4-methyl-piperazin-1-yl)-2-(tetrahydro-pyran-4-ylamino)-benzamide]: the IC50 in the test on KM12-100 nM-B cells is 0.0704 µM; in the test on KM12-100 nM A cells, 0.00662 µM; in the test on KM12-300 nM-B cells it was 0.209 µM; in the test on KM12-30 nM-B cells, 0.0938 µM; in the test on KM12-3 nM A cells (KM12), 0.00436 µM; with KM12-3 nM A cells (KM12, 72 h), 0.00164 µM. The IC50 in the test with KM12-30 nM A cells (KM12) is 0.00647 µM; with KM12-30 nM A cells (KM12, 72 h), 0.00341 µM; with KM12-1 nM A cells (KM12) it was 0.00419 µM; in the test with KM12-1 nM A cells (KM12, 72 h), 0.00157 µM; in test [6] it was 0.0854 µM; in the test with KM12-10 nM A cells (KM12), 0.00465 µM. Moreover, the IC50 in the test on KM12-10 nM A cells (KM12, 72 h) was found to be 0.00171 µM; in test [3] (Homo sapiens, KM12), 0.367 µM; in [5] (Homo sapiens, KM12, 72 h, KM12-DMSO-A, 3-day growth inhibition, Table 3), 0.00126 µM; in [5] (Homo sapiens, KM12, 672 h, KM12-DMSO, Table 4, after about 4 weeks of increased entrectinib in Set A), 0.00395 µM; in test [5] (Homo sapiens, KM12, KM12-DMSO-B, Table 5), 0.00114 µM; in test [5] (Homo sapiens, KM12, KM12-TPM3/trkA_WT, Table 8, cells without unit) it was 0.0034 µM. The “increase of IC50 value” in the test on KM12-30 nM A cells (KM12-30 nM-A treated cells versus cells cultured in DMSO and 1-10 nM entrectinib) is listed as approximately 2 fold. For the same molecule, the “IC50 higher than that of the control parental line” value in test [7] is on record as more than 100 fold. For the same molecule, the “inhibitory activity against mutant cells” value in test [4] is “significant inhibitory activity”. Moreover, the GI50 stood at 0.0087 µM at BaF3-tel/trkB cells and 0.0055 µM at BaF3-tel/trkC cells (setting [9]).

On to `CNC(=O)c1cc(Oc2ccc(NC(=O)Nc3cc(C(C)(C)C)nn3-c3ccc4ncccc4c3)c(F)c2)ccn1` [rebastinib, 4-[4-[(5-tert-butyl-2-quinolin-6-ylpyrazol-3-yl)carbamoylamino]-3-fluorophenoxy]-N-methylpyridine-2-carboxamide], for which the “inhibitory activity against mutant cells” value in [4] was “significant inhibitory activity”.
